Test results taken from patent US20170008888A1 (KYORIN PHARMACEUTICAL CO., LTD., priority 2014, published 2017).
Where two headings read alike, the source gives them in different places.

How the values were obtained:
Assay type in all cases: binding
ERK5 = target: T1, ERK5 (Homo sapiens, UniProt Q13164); assay: Probe-based (AX9989 acyl phosphate ATP probe) kinase profiling in Jurkat lysate: ERK5; conditions: for IC50: Jurkat lysate; for inhibition at 10 µM: screening concentration 10 μM
T1 construct: screened for activity against several kinases in Jurkat cells; endogenous in cells; host or cells: Jurkat cell lysate
Summary of the method: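 ERK5 IC50 values came from percent inhibition at the screening concentration, measured as loss of LC/MS signal of probe-labelled active-site peptides. Compound was added for 15 min at room temperature to Jurkat lysate (5 mg/ml, 20 mM MnCl2) before labelling with AX9989 ATP acyl phosphate probe at 5 μM.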

AurA = target: T2, AurA (Homo sapiens, UniProt O14965); assay: Probe-based (AX9989) kinase profiling in Jurkat lysate: AurA; conditions: for inhibition at 10 µM: screening concentration 10 μM
T2 construct: screened for activity against several kinases in Jurkat cells; endogenous in cells; host or cells: Jurkat cell lysate
T2 sequence (O14965 1-403): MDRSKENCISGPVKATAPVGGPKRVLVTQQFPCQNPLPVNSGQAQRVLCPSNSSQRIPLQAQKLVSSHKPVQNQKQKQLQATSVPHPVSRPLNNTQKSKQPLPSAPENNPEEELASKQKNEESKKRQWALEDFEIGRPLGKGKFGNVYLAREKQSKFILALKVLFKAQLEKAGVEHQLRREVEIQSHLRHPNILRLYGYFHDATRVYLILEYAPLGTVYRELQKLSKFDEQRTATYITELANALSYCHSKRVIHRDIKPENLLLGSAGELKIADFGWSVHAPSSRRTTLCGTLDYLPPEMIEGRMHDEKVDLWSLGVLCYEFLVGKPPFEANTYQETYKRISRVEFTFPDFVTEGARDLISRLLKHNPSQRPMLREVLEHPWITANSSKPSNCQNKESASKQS
Summary of the method: (§1)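 Read-out: LC/MS intensity of desthiobiotinylated kinase active-site peptides, percent inhibition normalized to no-compound lysate. Jurkat lysate with 20 mM MnCl2 received compound for 15 min at room temperature, then 5 μM AX9989 probe; duplicates.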

JAK1 = target: T3, JAK1 (Homo sapiens, UniProt P23458); assay: Probe-based (AX9989) kinase profiling in Jurkat lysate: JAK1; conditions: for inhibition at 10 µM: screening concentration 10 μM
T3 construct: screened for activity against several kinases in Jurkat cells; endogenous in cells; host or cells: Jurkat cell lysate
Summary of the method: as §1

AMPKa1 or AMPKa2 = assay: Probe-based (AX9989) kinase profiling in Jurkat lysate: AMPKa1 or AMPKa2
Summary of the method: as §1

TAO2 = target: T4, TAO2 (Homo sapiens, UniProt Q9UL54); assay: Probe-based (AX9989) kinase profiling in Jurkat lysate: TAO2; conditions: for inhibition at 10 µM: screening concentration 10 μM
T4 construct: screened for activity against several kinases in Jurkat cells; endogenous in cells; host or cells: Jurkat cell lysate
T4 sequence (Q9UL54 1-1235): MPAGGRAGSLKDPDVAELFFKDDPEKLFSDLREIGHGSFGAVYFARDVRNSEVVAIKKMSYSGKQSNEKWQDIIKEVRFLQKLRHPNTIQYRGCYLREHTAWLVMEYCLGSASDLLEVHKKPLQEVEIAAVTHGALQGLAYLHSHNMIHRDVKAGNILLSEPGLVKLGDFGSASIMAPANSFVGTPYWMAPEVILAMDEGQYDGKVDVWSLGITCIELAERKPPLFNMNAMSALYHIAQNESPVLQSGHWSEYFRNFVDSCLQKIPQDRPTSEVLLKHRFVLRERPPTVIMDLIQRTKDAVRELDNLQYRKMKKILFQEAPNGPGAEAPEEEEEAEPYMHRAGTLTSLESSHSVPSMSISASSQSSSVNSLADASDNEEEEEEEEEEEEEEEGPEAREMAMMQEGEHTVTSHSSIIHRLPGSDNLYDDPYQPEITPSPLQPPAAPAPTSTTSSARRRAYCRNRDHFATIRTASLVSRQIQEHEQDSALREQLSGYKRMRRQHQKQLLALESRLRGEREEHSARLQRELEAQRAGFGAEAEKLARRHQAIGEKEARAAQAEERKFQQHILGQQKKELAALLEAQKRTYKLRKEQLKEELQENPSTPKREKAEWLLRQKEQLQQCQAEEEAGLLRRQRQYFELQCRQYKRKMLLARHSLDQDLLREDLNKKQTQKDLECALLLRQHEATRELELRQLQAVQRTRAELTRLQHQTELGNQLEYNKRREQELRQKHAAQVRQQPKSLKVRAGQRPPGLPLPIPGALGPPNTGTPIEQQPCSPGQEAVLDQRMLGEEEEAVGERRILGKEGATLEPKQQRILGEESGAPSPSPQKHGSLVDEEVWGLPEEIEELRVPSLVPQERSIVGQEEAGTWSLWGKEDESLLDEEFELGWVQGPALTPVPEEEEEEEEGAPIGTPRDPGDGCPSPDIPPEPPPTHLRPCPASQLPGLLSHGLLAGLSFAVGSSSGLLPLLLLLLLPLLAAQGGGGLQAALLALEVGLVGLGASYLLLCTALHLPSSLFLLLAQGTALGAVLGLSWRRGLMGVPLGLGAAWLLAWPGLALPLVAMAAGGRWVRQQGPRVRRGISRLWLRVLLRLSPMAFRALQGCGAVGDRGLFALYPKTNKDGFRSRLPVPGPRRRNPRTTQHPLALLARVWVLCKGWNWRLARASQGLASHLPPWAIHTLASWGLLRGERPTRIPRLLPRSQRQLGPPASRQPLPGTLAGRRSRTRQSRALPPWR
Summary of the method: as §1

ABL or ARG = assay: Probe-based (AX9989) kinase profiling in Jurkat lysate: ABL or ARG
Summary of the method: as §1

[1] = calculated from percent inhibition and screening concentration, AX9989 probe
[2] = screening concentration 1 μM, read-out: ERK5 Inhibition % at indicated screening concentration
[3] = screening concentration 1 μM, read-out: AurA Inhibition % at indicated screening concentration
[4] = screening concentration 1 μM, read-out: JAK1 Inhibition % at indicated screening concentration
[5] = screening concentration 1 μM, read-out: TAO2 Inhibition % at indicated screening concentration
[6] = calculated from percent inhibition of AX9989 labeling and the screening concentration
[7] = read-out: ERK5 Inhibition % at indicated screening concentration
[8] = read-out: AurA Inhibition % at indicated screening concentration
[9] = read-out: JAK1 Inhibition % at indicated screening concentration
[10] = read-out: TAO2 Inhibition % at indicated screening concentration
[11] = screening concentration 1.0 μM, read-out: Kinase inhibition % at indicated screening concentration: ERK5
[12] = screening concentration 1.0 μM, read-out: Kinase inhibition % at indicated screening concentration: AurA
[13] = screening concentration 1.0 μM, read-out: Kinase inhibition % at indicated screening concentration: JAK1
[14] = screening concentration 1.0 μM, read-out: Kinase inhibition % at indicated screening concentration: TAO2

T3 sequence (P23458 whole entry): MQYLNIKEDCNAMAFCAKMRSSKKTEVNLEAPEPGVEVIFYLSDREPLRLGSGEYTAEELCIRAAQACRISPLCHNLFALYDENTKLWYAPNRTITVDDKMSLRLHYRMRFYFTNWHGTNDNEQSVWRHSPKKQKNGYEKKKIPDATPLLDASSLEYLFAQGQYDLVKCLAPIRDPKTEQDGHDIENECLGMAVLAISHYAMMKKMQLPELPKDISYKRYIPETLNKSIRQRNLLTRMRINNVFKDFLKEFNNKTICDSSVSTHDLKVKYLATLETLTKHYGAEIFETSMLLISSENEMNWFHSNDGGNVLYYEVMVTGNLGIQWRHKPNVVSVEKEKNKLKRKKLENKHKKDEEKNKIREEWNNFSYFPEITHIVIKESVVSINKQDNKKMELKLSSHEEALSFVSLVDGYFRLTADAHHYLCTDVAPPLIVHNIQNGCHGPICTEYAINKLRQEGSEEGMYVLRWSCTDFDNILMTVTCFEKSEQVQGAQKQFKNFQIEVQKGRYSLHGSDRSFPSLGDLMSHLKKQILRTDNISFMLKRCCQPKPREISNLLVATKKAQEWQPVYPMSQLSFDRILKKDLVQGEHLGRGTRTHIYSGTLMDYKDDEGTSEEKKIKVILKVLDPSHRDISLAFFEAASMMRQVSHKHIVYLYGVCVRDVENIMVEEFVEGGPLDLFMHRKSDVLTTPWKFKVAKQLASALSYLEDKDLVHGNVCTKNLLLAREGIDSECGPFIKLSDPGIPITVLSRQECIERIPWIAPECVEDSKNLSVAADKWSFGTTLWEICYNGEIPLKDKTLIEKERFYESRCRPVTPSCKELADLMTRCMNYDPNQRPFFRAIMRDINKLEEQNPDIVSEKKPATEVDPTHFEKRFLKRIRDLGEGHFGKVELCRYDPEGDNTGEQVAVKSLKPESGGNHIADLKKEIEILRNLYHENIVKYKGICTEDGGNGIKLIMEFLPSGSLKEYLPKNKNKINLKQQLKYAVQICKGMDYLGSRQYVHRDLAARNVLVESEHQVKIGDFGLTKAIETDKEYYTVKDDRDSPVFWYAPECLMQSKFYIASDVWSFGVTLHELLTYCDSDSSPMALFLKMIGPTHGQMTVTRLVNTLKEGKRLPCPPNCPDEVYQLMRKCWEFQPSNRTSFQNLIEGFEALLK
T1 sequence (Q13164 whole entry): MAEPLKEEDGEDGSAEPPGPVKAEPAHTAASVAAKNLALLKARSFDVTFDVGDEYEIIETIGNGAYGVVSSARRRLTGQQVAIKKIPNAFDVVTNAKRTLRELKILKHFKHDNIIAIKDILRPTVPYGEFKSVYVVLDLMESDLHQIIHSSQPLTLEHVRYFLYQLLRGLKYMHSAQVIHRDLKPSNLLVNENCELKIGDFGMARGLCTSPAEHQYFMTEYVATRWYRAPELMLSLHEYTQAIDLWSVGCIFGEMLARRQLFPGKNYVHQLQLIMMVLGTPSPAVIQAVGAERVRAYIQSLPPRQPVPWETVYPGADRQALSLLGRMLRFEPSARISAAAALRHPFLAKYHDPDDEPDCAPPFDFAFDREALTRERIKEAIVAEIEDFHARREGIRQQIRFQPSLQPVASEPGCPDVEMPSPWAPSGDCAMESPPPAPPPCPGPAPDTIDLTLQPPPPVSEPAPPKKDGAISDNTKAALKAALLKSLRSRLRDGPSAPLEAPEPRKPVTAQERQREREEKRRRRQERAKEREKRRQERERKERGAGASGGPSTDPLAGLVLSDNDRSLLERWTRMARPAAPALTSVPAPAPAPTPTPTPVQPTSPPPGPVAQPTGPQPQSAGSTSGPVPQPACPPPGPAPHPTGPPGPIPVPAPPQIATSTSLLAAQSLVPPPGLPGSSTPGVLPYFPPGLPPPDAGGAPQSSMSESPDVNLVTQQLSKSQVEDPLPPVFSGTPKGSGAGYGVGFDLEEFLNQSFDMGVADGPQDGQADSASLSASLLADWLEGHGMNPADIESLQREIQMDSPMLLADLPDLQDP

SMILES: CCOc1cc(C(=O)N[C@H]2CC[C@H](O)CC2)ccc1Nc1cc2c(cn1)N(C)C(=O)c1ccccc1N2C [Compound T62]
- IC50 (ERK5; [1]): 101 to 500 nM
- inhibition at 1 µM (ERK5; [2]): 75 to 90%
- inhibition at 1 µM (AurA; [3]): ≤ 35%
- inhibition at 1 µM (JAK1; [4]): ≤ 35%
- AMPKa1 or AMPKa2 Inhibition % at indicated screening concentration (AMPKa1 or AMPKa2; screening concentration 1 μM): E (E is ≦35%)
- inhibition at 1 µM (TAO2; [5]): ≤ 35%
- ABL or ARG Inhibition % at indicated screening concentration (ABL or ARG; screening concentration 1 μM): E (E is ≦35%)

SMILES: Cc1cc(CN2CC[C@@H](N3CCCC3)C2)ccc1Nc1cc2c(cn1)N(C)C(=O)c1ccccc1N2C [Compound 49]
- IC50 (ERK5; [6]): ≤ 50 nM
- inhibition at 0.1 µM (ERK5; screening concentration 0.1 μM, read-out: Kinase inhibition % at indicated screening concentration: ERK5): > 90%
- inhibition at 0.1 µM (AurA; screening concentration 0.1 μM, read-out: Kinase inhibition % at indicated screening concentration: AurA): ≤ 35%
- inhibition at 0.1 µM (JAK1; screening concentration 0.1 μM, read-out: Kinase inhibition % at indicated screening concentration: JAK1): ≤ 35%
- Kinase inhibition % at indicated screening concentration: AMPKa1 or AMPKa2 (AMPKa1 or AMPKa2; screening concentration 0.1 μM): E (E is ≦35%)
- inhibition at 0.1 µM (TAO2; screening concentration 0.1 μM, read-out: Kinase inhibition % at indicated screening concentration: TAO2): ≤ 35%
- Kinase inhibition % at indicated screening concentration: ABL or ARG (ABL or ARG; screening concentration 0.1 μM): E (E is ≦35%)

SMILES: CC(C)Oc1cc(C(=O)N2CC[C@@H](NCCF)C2)ccc1Nc1cc2c(cn1)N(C)C(=O)c1ccccc1N2C [Compound T50]
- IC50 (ERK5; [1]): 101 to 500 nM
- inhibition at 1 µM (ERK5; [2]): 75 to 90%
- inhibition at 1 µM (AurA; [3]): ≤ 35%
- inhibition at 1 µM (JAK1; [4]): ≤ 35%
- AMPKa1 or AMPKa2 Inhibition % at indicated screening concentration (AMPKa1 or AMPKa2; screening concentration 1 μM): E (E is ≦35%)
- inhibition at 1 µM (TAO2; [5]): ≤ 35%
- ABL or ARG Inhibition % at indicated screening concentration (ABL or ARG; screening concentration 1 μM): E (E is ≦35%)

SMILES: CCOc1cc(C(=O)N2CCC(NCCF)C2)ccc1Nc1cc2c(cn1)N(C)C(C(F)(F)F)c1ccccc1N2C (stereo not shown) [Compound T54]
- IC50 (ERK5; [1]): > 500 nM
- inhibition at 10 µM (ERK5; [7]): 50 to 75%
- inhibition at 10 µM (AurA; [8]): ≤ 35%
- inhibition at 10 µM (JAK1; [9]): ≤ 35%
- AMPKa1 or AMPKa2 Inhibition % at indicated screening concentration (AMPKa1 or AMPKa2; screening concentration 10 μM): E (E is ≦35%)
- inhibition at 10 µM (TAO2; [10]): ≤ 35%
- ABL or ARG Inhibition % at indicated screening concentration (ABL or ARG; screening concentration 10 μM): E (E is ≦35%)

SMILES: CC(C)Oc1cc(C(=O)N2CCC[C@H](O)C2)ccc1Nc1cc2c(cn1)N(C)C(=O)c1ccccc1N2C [Compound T48]
- IC50 (ERK5; [1]): 101 to 500 nM
- inhibition at 10 µM (ERK5; [7]): > 90%
- inhibition at 10 µM (AurA; [8]): ≤ 35%
- inhibition at 10 µM (JAK1; [9]): ≤ 35%
- AMPKa1 or AMPKa2 Inhibition % at indicated screening concentration (AMPKa1 or AMPKa2; screening concentration 10 μM): E (E is ≦35%)
- inhibition at 10 µM (TAO2; [10]): ≤ 35%
- ABL or ARG Inhibition % at indicated screening concentration (ABL or ARG; screening concentration 10 μM): E (E is ≦35%)

SMILES: CCOc1cc(C(=O)N2CCC(OC)CC2)ccc1Nc1cc2c(cn1)N(C)C(=O)c1ccccc1N2C [Compound 63]
- IC50 (ERK5; [6]): 50 to 100 nM
- inhibition at 1 µM (ERK5; [11]): > 90%
- inhibition at 1 µM (AurA; [12]): ≤ 35%
- inhibition at 1 µM (JAK1; [13]): ≤ 35%
- Kinase inhibition % at indicated screening concentration: AMPKa1 or AMPKa2 (AMPKa1 or AMPKa2; screening concentration 1.0 μM): E (E is ≦35%)
- inhibition at 1 µM (TAO2; [14]): ≤ 35%
- Kinase inhibition % at indicated screening concentration: ABL or ARG (ABL or ARG; screening concentration 1.0 μM): E (E is ≦35%)

SMILES: CCOc1cc(C(=O)N2CCOCC2)ccc1Nc1cc2c(cn1)N(C)C(=O)c1ccccc1N2C [Compound 111]
- IC50 (ERK5; [6]): ≤ 50 nM
- inhibition at 1 µM (ERK5; [11]): ≤ 35%
- inhibition at 1 µM (AurA; [12]): ≤ 35%
- inhibition at 1 µM (JAK1; [13]): ≤ 35%
- Kinase inhibition % at indicated screening concentration: AMPKa1 or AMPKa2 (AMPKa1 or AMPKa2; screening concentration 1.0 μM): E (E is ≦35%)
- inhibition at 1 µM (TAO2; [14]): ≤ 35%
- Kinase inhibition % at indicated screening concentration: ABL or ARG (ABL or ARG; screening concentration 1.0 μM): E (E is ≦35%)
